ChEMBL document CHEMBL3885861, “Open TG-GATES”

Species on record: Rattus norvegicus
Experiment: Open TG-GATES - Regimen: Single
Type: toxicity, organism-based, Sprague-Dawley
Set-up: regimen Single, gender Male, age 6 weeks
Settings: in vivo, po, 10 mg/kg, route gavage, dose level Low; for APTT / Bas / Eos / Fbg / Hb / Ht / Lym / MCH / MCHC / MCV / Mono / Neu / PT / Plat / RBC / Ret / WBC: tissue Blood; for KIDNEY_L / KIDNEY_R / KIDNEY_TOTAL: tissue Kidney; for LIVER: tissue Liver; for A/G / ALP / ALT / AST / BUN / CRE / Ca / Cl / DBIL / GLC / IP / K / LDH / Na / PL / RALB / TBIL / TC / TG / TP / gamma-GTP: tissue Plasma

## CC1=C(/C=C/C(C)=C/C=C/C(C)=C/CO)C(C)(C)CCC1 [RETINOL]
3 h
  TERMINAL_BW: 201.8 g
  APTT: 21.9 s
  Bas: 0%
  Eos: 0.8%
  Fbg: 307.4 mg/dL
  Hb: 13.1 g/dL
  Ht: 37.7%
  Lym: 81.4%
  MCH: 21.5 pg
  MCHC: 34.6%
  MCV: 62.2 fL
  Mono: 2.6%
  Neu: 14.8%
  PT: 15.9 s
  Plat: 124.2 x10_4/uL
  RBC: 606.4 x10_4/ul
  Ret: 8.8%
  WBC: 95.9 x10_2/uL
  KIDNEY_L: 0.9 g
  KIDNEY_R: 0.9 g
  KIDNEY_TOTAL: 1.8 g
  LIVER: 9.3 g
  A/G: 1.3
  ALP: 1940 IU/L
  ALT: 41.2 IU/L
  AST: 75.2 IU/L
  BUN: 13.4 mg/dL
  CRE: 0.1 mg/dL
  Ca: 10.8 mg/dL
  Cl: 106.6 meq/L
  DBIL: 0 mg/dL
  GLC: 171.6 mg/dL
  IP: 8.6 mg/dL
  K: 4.1 meq/L
  LDH: 253.6 IU/L
  Na: 141.6 meq/L
  PL: 160.6 mg/dL
  RALB: 3.2 g/dL
  TBIL: 0.006 mg/dL
  TC: 81.2 mg/dL
  TG: 123.4 mg/dL
  TP: 5.6 g/dL
  gamma-GTP: 2.2 IU/L
6 h
  TERMINAL_BW: 200 g
  APTT: 21 s
  Bas: 0%
  Eos: 1%
  Fbg: 312 mg/dL
  Hb: 13.5 g/dL
  Ht: 39.4%
  Lym: 80.4%
  MCH: 21.4 pg
  MCHC: 34.3%
  MCV: 62.3 fL
  Mono: 2.6%
  Neu: 15.4%
  PT: 15.6 s
  Plat: 119.1 x10_4/uL
  RBC: 632.2 x10_4/ul
  Ret: 8.1%
  WBC: 81.2 x10_2/uL
  KIDNEY_L: 0.9 g
  KIDNEY_R: 0.9 g
  KIDNEY_TOTAL: 1.9 g
  LIVER: 8.6 g
  A/G: 1.3
  ALP: 1760 IU/L
  ALT: 35.8 IU/L
  AST: 69.2 IU/L
  BUN: 9.4 mg/dL
  CRE: 0.1 mg/dL
  Ca: 11 mg/dL
  Cl: 107.4 meq/L
  DBIL: 0.008 mg/dL
  GLC: 180 mg/dL
  IP: 10.3 mg/dL
  K: 4.3 meq/L
  LDH: 223 IU/L
  Na: 142.8 meq/L
  PL: 143.8 mg/dL
  RALB: 3.1 g/dL
  TBIL: 0.016 mg/dL
  TC: 74.4 mg/dL
  TG: 98.4 mg/dL
  TP: 5.4 g/dL
  gamma-GTP: 0.8 IU/L
9 h
  TERMINAL_BW: 196.8 g
  APTT: 21.8 s
  Bas: 0%
  Eos: 0.6%
  Fbg: 296.8 mg/dL
  Hb: 13.2 g/dL
  Ht: 38.3%
  Lym: 78%
  MCH: 21.6 pg
  MCHC: 34.4%
  MCV: 62.9 fL
  Mono: 2.4%
  Neu: 18.4%
  PT: 15.6 s
  Plat: 128.6 x10_4/uL
  RBC: 610.2 x10_4/ul
  Ret: 7.6%
  WBC: 92.3 x10_2/uL
  KIDNEY_L: 0.9 g
  KIDNEY_R: 0.9 g
  KIDNEY_TOTAL: 1.8 g
  LIVER: 7.8 g
  A/G: 1.3
  ALP: 1939.6 IU/L
  ALT: 34.8 IU/L
  AST: 70.6 IU/L
  BUN: 9.6 mg/dL
  CRE: 0.1 mg/dL
  Ca: 10.9 mg/dL
  Cl: 107.4 meq/L
  DBIL: 0.004 mg/dL
  GLC: 187 mg/dL
  IP: 10.6 mg/dL
  K: 4 meq/L
  LDH: 242.8 IU/L
  Na: 141.4 meq/L
  PL: 127.4 mg/dL
  RALB: 3 g/dL
  TBIL: 0.012 mg/dL
  TC: 69.2 mg/dL
  TG: 50.2 mg/dL
  TP: 5.3 g/dL
  gamma-GTP: 2.8 IU/L
24 h
  TERMINAL_BW: 208.4 g
  APTT: 21.5 s
  Bas: 0%
  Eos: 1%
  Fbg: 273.4 mg/dL
  Hb: 13.2 g/dL
  Ht: 38.4%
  Lym: 80.2%
  MCH: 21.4 pg
  MCHC: 34.5%
  MCV: 62.2 fL
  Mono: 3.2%
  Neu: 15%
  PT: 16.2 s
  Plat: 123.1 x10_4/uL
  RBC: 618 x10_4/ul
  Ret: 7.5%
  WBC: 81 x10_2/uL
  KIDNEY_L: 1 g
  KIDNEY_R: 1 g
  KIDNEY_TOTAL: 2 g
  LIVER: 9.8 g
  A/G: 1.4
  ALP: 1455.4 IU/L
  ALT: 44.6 IU/L
  AST: 78.4 IU/L
  BUN: 16.8 mg/dL
  CRE: 0.2 mg/dL
  Ca: 10.6 mg/dL
  Cl: 106.8 meq/L
  DBIL: 0.002 mg/dL
  GLC: 187.4 mg/dL
  IP: 6.9 mg/dL
  K: 4.5 meq/L
  LDH: 318.8 IU/L
  Na: 141.6 meq/L
  PL: 135.2 mg/dL
  RALB: 3.1 g/dL
  TBIL: 0.002 mg/dL
  TC: 65 mg/dL
  TG: 114.6 mg/dL
  TP: 5.4 g/dL
  gamma-GTP: 1.6 IU/L
